According to ChEMBL document CHEMBL1201861, “Genomics of Drug Sensitity in Cancer screening data, Wellcome Trust Sanger Institute”:

Key:
Test in all cases: cells
[1] = test system: MFM-223; assay type: functional, cell-based, Homo sapiens; conditions: Homo sapiens, MFM-223
Description: SANGER: Inhibition of human MFM-223 cell growth in a cell viability assay.

[2] = test system: NCI-H69; assay type: functional, cell-based, Homo sapiens; conditions: Homo sapiens, NCI-H69;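 also: growth inhibition of the cell line, read out with a cell viability assay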
Description: SANGER: Inhibition of human NCI-H69 cell growth in a cell viability assay.

[3] = test system: ES3; assay type: functional, cell-based, Homo sapiens; conditions: Homo sapiens, ES3;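 also: growth inhibition of ES3 cells, read out with a cell viability assay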
Description: SANGER: Inhibition of human ES3 cell growth in a cell viability assay.

[4] = test system: A3-KAW; assay type: functional, cell-based, Homo sapiens; conditions: Homo sapiens, A3-KAW;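 also: growth inhibition of human A3-KAW cells, read out with a cell viability assay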
Description: SANGER: Inhibition of human A3-KAW cell growth in a cell viability assay.

[5] = test system: J-RT3-T3-5; assay type: functional, cell-based, Homo sapiens; conditions: Homo sapiens, J-RT3-T3-5;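 also: cell viability assay measuring growth inhibition of human J-RT3-T3-5 cells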
Description: SANGER: Inhibition of human J-RT3-T3-5 cell growth in a cell viability assay.

[6] = test system: EC-GI-10; assay type: functional, cell-based, Homo sapiens; conditions: Homo sapiens, EC-GI-10
Description: SANGER: Inhibition of human EC-GI-10 cell growth in a cell viability assay.

[7] = test system: LB771-HNC; assay type: functional, cell-based, Homo sapiens; conditions: Homo sapiens, LB771-HNC;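 also: growth inhibition of LB771-HNC human cells, read out with a cell viability assay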
Description: SANGER: Inhibition of human LB771-HNC cell growth in a cell viability assay.

[8] = test system: MV4-11; assay type: functional, cell-based, Homo sapiens, MV-4-11; conditions: Homo sapiens, MV4-11;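 also: cell viability readout measuring growth inhibition of human MV-4-11 cells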
Description: SANGER: Inhibition of human MV-4-11 cell growth in a cell viability assay.

[9] = test system: KNS-42; assay type: functional, cell-based, Homo sapiens; conditions: Homo sapiens, KNS-42;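 also: growth inhibition of KNS-42 cells, read out with a cell viability assay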
Description: SANGER: Inhibition of human KNS-42 cell growth in a cell viability assay.

[10] = test system: ES5; assay type: functional, cell-based, Homo sapiens; conditions: Homo sapiens, ES5;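 also: growth inhibition of human ES5 cells, read out by a cell viability assay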
Description: SANGER: Inhibition of human ES5 cell growth in a cell viability assay.

[11] = test system: ES6; assay type: functional, cell-based, Homo sapiens; conditions: Homo sapiens, ES6;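 also: growth inhibition of human ES6 cells, read out with a cell viability assay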
Description: SANGER: Inhibition of human ES6 cell growth in a cell viability assay.

[12] = test system: KNS-81-FD; assay type: functional, cell-based, Homo sapiens; conditions: Homo sapiens, KNS-81-FD;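 also: growth inhibition of KNS-81-FD cells, read out with a cell viability assay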
Description: SANGER: Inhibition of human KNS-81-FD cell growth in a cell viability assay.

[13] = test system: SK-LMS-1; assay type: functional, cell-based, Homo sapiens; conditions: Homo sapiens, SK-LMS-1;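 also: growth inhibition of human SK-LMS-1 cells, read out with a cell viability assay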
Description: SANGER: Inhibition of human SK-LMS-1 cell growth in a cell viability assay.

[14] = test system: HEL; assay type: functional, cell-based, Homo sapiens; conditions: Homo sapiens, HEL;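 also: growth inhibition of HEL cells, read out with a cell viability assay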
Description: SANGER: Inhibition of human HEL cell growth in a cell viability assay.

[15] = test system: EOL1; assay type: functional, cell-based, Homo sapiens; conditions: Homo sapiens, EOL1;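 also: growth inhibition of EoL-1 cells, read out by a cell viability assay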
Description: SANGER: Inhibition of human EoL-1-cell cell growth in a cell viability assay.

[16] = test system: NCI-H720; assay type: functional, cell-based, Homo sapiens; conditions: Homo sapiens, NCI-H720;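 also: growth inhibition of human NCI-H720 cells determined by a cell viability assay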
Description: SANGER: Inhibition of human NCI-H720 cell growth in a cell viability assay.

[17] = test system: SNU1; assay type: functional, cell-based, Homo sapiens; conditions: Homo sapiens, SNU1;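 also: growth inhibition of human NCI-SNU-1 cells, measured with a cell viability assay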
Description: SANGER: Inhibition of human NCI-SNU-1 cell growth in a cell viability assay.

[18] = test system: NCI-H226; assay type: functional, cell-based, Homo sapiens; conditions: Homo sapiens, NCI-H226;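 also: cell viability read-out used to gauge growth inhibition of the cells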
Description: SANGER: Inhibition of human NCI-H226 cell growth in a cell viability assay.

[19] = test system: TE-11; assay type: functional, cell-based, Homo sapiens; conditions: Homo sapiens, TE-11;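 also: growth inhibition of human TE-11 cells, read out by a cell viability assay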
Description: SANGER: Inhibition of human TE-11 cell growth in a cell viability assay.

[20] = test system: TE-10; assay type: functional, cell-based, Homo sapiens; conditions: Homo sapiens, TE-10;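 also: growth inhibition of TE-10 cells, measured by a cell viability assay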
Description: SANGER: Inhibition of human TE-10 cell growth in a cell viability assay.

[21] = test system: TK-10; assay type: functional, cell-based, Homo sapiens; conditions: Homo sapiens, TK-10;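 also: growth inhibition of TK-10 cells, read out in a cell viability assay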
Description: SANGER: Inhibition of human TK10 cell growth in a cell viability assay.

[22] = test system: CTV-1; assay type: functional, cell-based, Homo sapiens; conditions: Homo sapiens, CTV-1;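 also: growth inhibition of the cell line, read out with a cell viability assay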
Description: SANGER: Inhibition of human CTV-1 cell growth in a cell viability assay.

[23] = test system: HD-MY-Z; assay type: functional, cell-based, Homo sapiens; conditions: Homo sapiens, HD-MY-Z;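 also: growth inhibition of HD-MY-Z cells, read out with a cell viability assay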
Description: SANGER: Inhibition of human HD-MY-Z cell growth in a cell viability assay.

[24] = test system: KY821; assay type: functional, cell-based, Homo sapiens; conditions: Homo sapiens, KY821;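 also: growth inhibition of human KY821 cells, read out by a cell viability assay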
Description: SANGER: Inhibition of human KY821 cell growth in a cell viability assay.

[25] = test system: LU-139; assay type: functional, cell-based, Homo sapiens; conditions: Homo sapiens, LU-139
Description: SANGER: Inhibition of human LU-139 cell growth in a cell viability assay.

[26] = test system: LS-1034; assay type: functional, cell-based, Homo sapiens; conditions: Homo sapiens, LS-1034
Description: SANGER: Inhibition of human LS-1034 cell growth in a cell viability assay.

[27] = test system: EKVX; assay type: functional, cell-based, Homo sapiens; conditions: Homo sapiens, EKVX;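 also: growth inhibition of human EKVX cells, read out with a cell viability assay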
Description: SANGER: Inhibition of human EKVX cell growth in a cell viability assay.

[28] = test system: MOLT-16; assay type: functional, cell-based, Homo sapiens; conditions: Homo sapiens, MOLT-16;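 also: growth inhibition of human MOLT-16 cells, read out with a cell viability assay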
Description: SANGER: Inhibition of human MOLT-16 cell growth in a cell viability assay.

[29] = test system: LB373-MEL-D; assay type: functional, cell-based, Homo sapiens; conditions: Homo sapiens, LB373-MEL-D;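 also: growth inhibition of the cell line, read out in a cell viability assay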
Description: SANGER: Inhibition of human LB373-MEL-D cell growth in a cell viability assay.

[30] = test system: KS-1; assay type: functional, cell-based, Homo sapiens; conditions: Homo sapiens, KS-1;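 also: growth inhibition of KS-1 cells, read out with a cell viability assay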
Description: SANGER: Inhibition of human KS-1 cell growth in a cell viability assay.

[31] = test system: ATN-1; assay type: functional, cell-based, Homo sapiens; conditions: Homo sapiens, ATN-1;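 also: growth inhibition of human ATN-1 cells, read out with a cell viability assay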
Description: SANGER: Inhibition of human ATN-1 cell growth in a cell viability assay.

[32] = test system: DSH1; assay type: functional, cell-based, Homo sapiens; conditions: Homo sapiens, DSH1;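 also: growth inhibition of human DSH1 cells, measured with a cell viability readout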
Description: SANGER: Inhibition of human DSH1 cell growth in a cell viability assay.

[33] = test system: NOS-1; assay type: functional, cell-based, Homo sapiens; conditions: Homo sapiens, NOS-1;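 also: growth inhibition of the human NOS-1 cell line, read out with a cell viability assay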
Description: SANGER: Inhibition of human NOS-1 cell growth in a cell viability assay.

[34] = test system: SJSA-1; assay type: functional, cell-based, Homo sapiens; conditions: Homo sapiens, SJSA-1;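 also: growth inhibition of human SJSA-1 cells, read out through a cell viability measurement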
Description: SANGER: Inhibition of human SJSA-1 cell growth in a cell viability assay.

[35] = test system: SW684; assay type: functional, cell-based, Homo sapiens; conditions: Homo sapiens, SW684;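 also: growth inhibition of human SW684 cells, measured by a cell viability assay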
Description: SANGER: Inhibition of human SW684 cell growth in a cell viability assay.

[36] = test system: KLE; assay type: functional, cell-based, Homo sapiens; conditions: Homo sapiens, KLE;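 also: growth inhibition of human KLE cells, read out with a cell viability assay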
Description: SANGER: Inhibition of human KLE cell growth in a cell viability assay.

[37] = test system: HC-1; assay type: functional, cell-based, Homo sapiens; conditions: Homo sapiens, HC-1;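 also: growth inhibition of HC-1 cells measured by a cell viability assay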
Description: SANGER: Inhibition of human HC-1 cell growth in a cell viability assay.

[38] = test system: ES4; assay type: functional, cell-based, Homo sapiens; conditions: Homo sapiens, ES4;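 also: growth inhibition of human ES4 cells, read out by a cell viability assay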
Description: SANGER: Inhibition of human ES4 cell growth in a cell viability assay.

[39] = test system: LS-411N; assay type: functional, cell-based, Homo sapiens; conditions: Homo sapiens, LS-411N
[40] = test system: COLO-684; assay type: functional, cell-based, Homo sapiens; conditions: Homo sapiens, COLO-684
Description: SANGER: Inhibition of human COLO-684 cell growth in a cell viability assay.

[41] = test system: D283 Med; assay type: functional, cell-based, Homo sapiens; conditions: Homo sapiens, D283 Med
Description: SANGER: Inhibition of human D-283MED cell growth in a cell viability assay.

[42] = test system: NCI-H1838; assay type: functional, cell-based, Homo sapiens; conditions: Homo sapiens, NCI-H1838;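 also: growth inhibition of NCI-H1838 cells, determined with a cell viability readout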
Description: SANGER: Inhibition of human NCI-H1838 cell growth in a cell viability assay.

[43] = test system: SK-NEP-1; assay type: functional, cell-based, Homo sapiens; conditions: Homo sapiens, SK-NEP-1;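 also: growth inhibition of human SK-NEP-1 cells, read out by a cell viability assay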
Description: SANGER: Inhibition of human SK-NEP-1 cell growth in a cell viability assay.

[44] = test system: KM12; assay type: functional, cell-based, Homo sapiens; conditions: Homo sapiens, KM12;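 also: KM12 cell growth inhibition, read out with a cell viability assay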
Description: SANGER: Inhibition of human KM12 cell growth in a cell viability assay.

[45] = test system: NTERA-2-cl-D1; assay type: functional, cell-based, Homo sapiens; conditions: Homo sapiens, NTERA-2-cl-D1;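 also: inhibition of cell growth, measured with a cell viability assay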
Description: SANGER: Inhibition of human NTERA-S-cl-D1 cell growth in a cell viability assay.

[46] = test system: COLO-800; assay type: functional, cell-based, Homo sapiens; conditions: Homo sapiens, COLO-800;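 also: growth inhibition of COLO-800 cells, read out with a cell viability assay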
Description: SANGER: Inhibition of human COLO-800 cell growth in a cell viability assay.

[47] = test system: CAS-1; assay type: functional, cell-based, Homo sapiens; conditions: Homo sapiens, CAS-1;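 also: growth inhibition of CAS-1 cells, measured with a cell viability assay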
Description: SANGER: Inhibition of human CAS-1 cell growth in a cell viability assay.

[48] = test system: HCC2218; assay type: functional, cell-based, Homo sapiens; conditions: Homo sapiens, HCC2218;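 also: cell viability assay read-out, with IC50 given as the concentration that inhibits growth of the cell line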
Description: SANGER: Inhibition of human HCC2218 cell growth in a cell viability assay.

[49] = test system: HAL-01; assay type: functional, cell-based, Homo sapiens; conditions: Homo sapiens, HAL-01;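 also: growth inhibition of human HAL-01 cells, read out with a cell viability assay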
Description: SANGER: Inhibition of human HAL-01 cell growth in a cell viability assay.

Nc1cccc2c1CN(C1CCC(=O)NC1=O)C2=O (centres undefined) [LENALIDOMIDE]
IC50 [1]: > 5 µM | IC50 [2]: > 5 µM | IC50 [3]: > 5 µM | IC50 [4]: > 5 µM | IC50 [5]: > 5 µM | IC50 [6]: > 5 µM | IC50 [7]: 2.15 µM | IC50 [8]: > 5 µM | IC50 [9]: > 5 µM | IC50 [10]: > 5 µM | IC50 [11]: > 5 µM | IC50 [12]: > 5 µM | IC50 [13]: > 5 µM | IC50 [14]: > 5 µM | IC50 [15]: 4.11 µM | IC50 [16]: > 5 µM | IC50 [17]: > 5 µM | IC50 [18]: > 5 µM | IC50 [19]: > 5 µM | IC50 [20]: > 5 µM | IC50 [21]: > 5 µM | IC50 [22]: > 5 µM | IC50 [23]: > 5 µM | IC50 [24]: > 5 µM | IC50 [25]: > 5 µM | IC50 [26]: > 5 µM | IC50 [27]: > 5 µM | IC50 [28]: > 5 µM | IC50 [29]: > 5 µM | IC50 [30]: > 5 µM | IC50 [31]: > 5 µM | IC50 [32]: > 5 µM | IC50 [33]: > 5 µM | IC50 [34]: > 5 µM | IC50 [35]: > 5 µM | IC50 [36]: > 5 µM | IC50 [37]: > 5 µM | IC50 [38]: > 5 µM | IC50 [39]: > 5 µM | IC50 [40]: > 5 µM | IC50 [41]: > 5 µM | IC50 [42]: > 5 µM | IC50 [43]: > 5 µM | IC50 [44]: > 5 µM | IC50 [45]: > 5 µM | IC50 [46]: > 5 µM | IC50 [47]: > 5 µM | IC50 [48]: > 5 µM | IC50 [49]: > 5 µM
